The source of these data is ChEMBL document CHEMBL3817812, “An expeditious four-component domino protocol for the synthesis of novel thiazolo[3,2-a]thiochromeno[4,3-d]pyrimidine derivatives as antibacterial and antibiofilm agents” (Bioorg Med Chem, 2016).

Values after ≈ are worked out from the molar mass of the structure shown. Active and inactive are the calls of the source. The calls are words filed in the database; no cut-off is given here.

Experiment [1] deals with Staphylococcus aureus. The experiment in a line: Antibacterial activity against Staphylococcus aureus MTCC 96 incubated for 24 hrs by well diffusion method. The settings on record: MTCC 96, 24 h. The experiment is classed as functional.
The subject of experiment [2] is Raoultella planticola. The experiment in a line: Antibacterial activity against Klebsiella planticola MTCC 530 incubated for 24 hrs by well diffusion method. It is filed as functional. The settings on record: MTCC 530, 24 h.
Experiment [3] deals with Escherichia coli. The experiment is described as follows: Antibacterial activity against Escherichia coli MTCC 739 incubated for 24 hrs by well diffusion method. It is filed as functional. The settings on record: MTCC 739, 24 h.
Experiment [4] has as its system Bacillus subtilis. The experiment is described as follows: Antibacterial activity against Bacillus subtilis MTCC 121 incubated for 24 hrs by well diffusion method. The experiment is classed as functional. Conditions: MTCC 121, 24 h.
For experiment [5], the system named is Micrococcus luteus. The experiment in a line: Antibacterial activity against Micrococcus luteus MTCC 2470 incubated for 24 hrs by well diffusion method. The settings on record: MTCC 2470, 24 h. The experiment is classed as functional.
Experiment [6] has as its system Pseudomonas aeruginosa. The experiment in a line: Antibacterial activity against Pseudomonas aeruginosa MTCC 2453 incubated for 24 hrs by well diffusion method. It is filed as functional. Conditions: MTCC 2453, 24 h.
The subject of experiment [7] is Staphylococcus aureus. The experiment in a line: Antibacterial activity against Staphylococcus aureus MLS16 MTCC 2940 incubated for 24 hrs by well diffusion method. It is filed as functional. The settings on record: MLS16 MTCC 2940, 24 h.
Experiment [8] has as its system Staphylococcus aureus. The experiment is described as follows: Bactericidal activity against Staphylococcus aureus MLS16 MTCC 2940 incubated for 24 hrs by broth dilution method. The experiment is classed as functional. The settings on record: MLS16 MTCC 2940, 24 h.
Experiment [9] deals with Bacillus subtilis. The experiment is described as follows: Bactericidal activity against Bacillus subtilis MTCC 121 incubated for 24 hrs by broth dilution method. The experiment is classed as functional. Conditions: MTCC 121, 24 h.
The test system of experiment [10] is Staphylococcus aureus. The experiment in a line: Bactericidal activity against Staphylococcus aureus MTCC 96 incubated for 24 hrs by broth dilution method. The experiment is classed as functional. Conditions: MTCC 96, 24 h.
The test system of experiment [11] is Micrococcus luteus. The experiment is described as follows: Bactericidal activity against Micrococcus luteus MTCC 2470 incubated for 24 hrs by broth dilution method. It is filed as functional. The settings on record: MTCC 2470, 24 h.
The subject of experiment [12] is Staphylococcus aureus. The experiment in a line: Antibiofilm activity against Staphylococcus aureus MTCC 96 incubated for 24 hrs by crystal violet staining-based assay. The experiment is classed as functional, organism-based. The settings on record: MTCC 96, 24 h.
In experiment [13] the test system is Micrococcus luteus. The experiment in a line: Antibiofilm activity against Micrococcus luteus MTCC 2470 incubated for 24 hrs by crystal violet staining-based assay. The experiment is classed as functional, organism-based. Conditions: MTCC 2470, 24 h.
The subject of experiment [14] is Staphylococcus aureus. The experiment is described as follows: Induction of ROS accumulation in Staphylococcus aureus MTCC 96 biofilm at 4 ug/ml after 24 hrs by DCFH-DA staining-based fluorometric assay. It is filed as functional, organism-based.
Experiment [15] has as its system Staphylococcus aureus. The experiment is described as follows: Antibiofilm activity against Staphylococcus aureus MLS16 MTCC 2940 incubated for 24 hrs by crystal violet staining-based assay. The experiment is classed as functional, organism-based. The settings on record: MLS16 MTCC 2940, 24 h.
For experiment [16], the system named is Staphylococcus aureus. The experiment in a line: Induction of ROS accumulation in Staphylococcus aureus MTCC 96 biofilm at 2 ug/ml after 24 hrs by DCFH-DA staining-based fluorometric assay. It is filed as functional, organism-based.
The test system of experiment [17] is Bacillus subtilis. The experiment is described as follows: Antibiofilm activity against Bacillus subtilis MTCC 121 incubated for 24 hrs by crystal violet staining-based assay. The experiment is classed as functional, organism-based. The settings on record: MTCC 121, 24 h.

Turning to `Clc1ccc(C2=CSC3=NC4=C(CSc5ccccc54)C(c4ccccc4)N23)cc1` (configuration not stated), the MIC in [1], in experiment [2], in experiment [3], in experiment [4], in experiment [5] and in [6] was above 125 µg/mL in each case. The compound also yielded an MIC in experiment [7] above 125 µg/mL.

Regarding `O=[N+]([O-])c1ccc(C2=CSC3=NC4=C(CSc5ccccc54)C(c4ccc(Cl)cc4)N23)cc1` (configuration not stated), the MIC in experiment [1] was above 125 µg/mL; in experiment [2], above 125 µg/mL; in experiment [3], above 125 µg/mL; in experiment [4], 15.6 µg/mL (≈ 31.8 µM); in experiment [5], 15.6 µg/mL (≈ 31.8 µM); in experiment [6] it was above 125 µg/mL. In experiment [7], the MIC is above 125 µg/mL. Besides, the minimal bactericidal concentration (MBC) is above 125 µg/mL in experiment [8], 31.2 µg/mL (≈ 63.7 µM) in experiment [9], above 125 µg/mL in experiment [10] and 31.2 µg/mL (≈ 63.7 µM) in experiment [11].

For the compound `Cc1ccc(C2=CSC3=NC4=C(CSc5ccccc54)C(c4ccccc4)N23)cc1` (configuration not stated), the IC50 in experiment [12] was determined as 2.1 µg/mL (≈ 4.95 µM); in experiment [13] it was 5.3 µg/mL (≈ 12.5 µM); in [15] it was 2.4 µg/mL (≈ 5.65 µM); in experiment [17] it was 1.9 µg/mL (≈ 4.47 µM). For the same compound, the MIC in experiment [1] is 3.9 µg/mL (≈ 9.19 µM); in experiment [2], above 125 µg/mL; in experiment [3], above 125 µg/mL; in [4], 3.9 µg/mL (≈ 9.19 µM); in [5], 7.8 µg/mL (≈ 18.4 µM); in experiment [6], above 125 µg/mL. In addition, the MIC in [7] worked out at 3.9 µg/mL (≈ 9.19 µM). The result in experiment [14] and in experiment [16] was Active. Moreover, the MBC worked out at 7.8 µg/mL (≈ 18.4 µM) in [8], 3.9 µg/mL (≈ 9.19 µM) in experiment [9], 7.8 µg/mL (≈ 18.4 µM) in experiment [10] and 15.6 µg/mL (≈ 36.7 µM) in experiment [11].

`O=C(O)c1cn(C2CC2)c2cc(N3CCNCC3)c(F)cc2c1=O` [CIPROFLOXACIN]: the MIC in [1], in experiment [2], in experiment [3], in experiment [4], in experiment [5] and in experiment [6] was 0.9 µg/mL (≈ 2.72 µM) in each case. Further, in experiment [7], 0.9 µg/mL (≈ 2.72 µM) was the least that counted as inhibitory (MIC). Moreover, the IC50 in [13] and in [15] was 0.4 µg/mL (≈ 1.21 µM) throughout. Also, the result in [14] and in experiment [16] was Active. Also, the MBC in [8] worked out at 0.9 µg/mL (≈ 2.72 µM); in experiment [9], 0.9 µg/mL (≈ 2.72 µM); in experiment [10], 1.9 µg/mL (≈ 5.73 µM); in experiment [11], 1.9 µg/mL (≈ 5.73 µM).

As to `COc1ccc(C2=CSC3=NC4=C(CSc5ccccc54)C(c4ccc(Cl)cc4)N23)cc1` (configuration not stated), the minimal inhibitory concentration (MIC) is 7.8 µg/mL (≈ 16.4 µM) in [1]; above 125 µg/mL in experiment [2]; above 125 µg/mL in experiment [3]; 62.5 µg/mL (≈ 132 µM) in experiment [4]; above 125 µg/mL in [5]; above 125 µg/mL in experiment [6]. The same compound had a minimal inhibitory concentration (MIC) in experiment [7] of 15.6 µg/mL (≈ 32.8 µM). The minimum bactericidal concentration (MBC) in experiment [8] was 31.2 µg/mL (≈ 65.7 µM); in experiment [9], 62.5 µg/mL (≈ 132 µM); in experiment [10], 15.6 µg/mL (≈ 32.8 µM); in experiment [11], above 125 µg/mL.

In the case of `Clc1ccc(C2C3=C(N=C4SC=C(c5ccccc5)N42)c2ccccc2SC3)cc1` (configuration not stated), the MIC in [1], in experiment [2], in experiment [3], in experiment [4], in experiment [5] and in [6] was above 125 µg/mL in each case. This compound gave an MIC in experiment [7] of 15.6 µg/mL (≈ 35.1 µM).

As to `Cc1ccc(C2C3=C(N=C4SC=C(c5cc6ccccc6oc5=O)N42)c2ccccc2SC3)cc1` (configuration not stated), the minimum inhibitory concentration (MIC) in [1] was 31.2 µg/mL (≈ 63.3 µM); in [2] it was above 125 µg/mL; in experiment [3] it was above 125 µg/mL; in [4] it was above 125 µg/mL; in experiment [5], above 125 µg/mL; in [6] it was above 125 µg/mL. In addition, in [7], 31.2 µg/mL (≈ 63.3 µM) was the least that counted as inhibitory (MIC). Further, the minimum bactericidal concentration (MBC) is 31.2 µg/mL (≈ 63.3 µM) in [8], above 125 µg/mL in experiment [9], 62.5 µg/mL (≈ 127 µM) in [10] and above 125 µg/mL in experiment [11].

Consider `O=c1oc2ccccc2cc1C1=CSC2=NC3=C(CSc4ccccc43)C(c3ccccc3)N12` (configuration not stated), for which the minimal inhibitory concentration (MIC) in experiment [1] is 15.6 µg/mL (≈ 32.6 µM); in experiment [2] it was above 125 µg/mL; in [3], above 125 µg/mL; in experiment [4], 31.2 µg/mL (≈ 65.2 µM); in experiment [5], 31.2 µg/mL (≈ 65.2 µM); in experiment [6], above 125 µg/mL. Further, the minimal inhibitory concentration (MIC) in experiment [7] was determined as 31.2 µg/mL (≈ 65.2 µM). Also, the MBC worked out at 62.5 µg/mL (≈ 131 µM) in experiment [8], 62.5 µg/mL (≈ 131 µM) in [9], 31.2 µg/mL (≈ 65.2 µM) in experiment [10] and 31.2 µg/mL (≈ 65.2 µM) in experiment [11].

Turning to `Cc1ccc(C2C3=C(N=C4SC=C(c5ccc(Br)cc5)N42)c2ccccc2SC3)cc1` (configuration not stated), the minimum inhibitory concentration (MIC) in [1], in experiment [2], in experiment [3], in [4], in experiment [5] and in [6] was above 125 µg/mL each time. In experiment [7], the MIC was above 125 µg/mL.

With `O=c1oc2ccccc2cc1C1=CSC2=NC3=C(CSc4ccccc43)C(c3cccc([N+](=O)[O-])c3)N12` (configuration not stated), the MIC in experiment [1], in experiment [2], in experiment [3], in experiment [4], in experiment [5] and in [6] was above 125 µg/mL in each case. This compound showed a minimum inhibitory concentration (MIC) in experiment [7] above 125 µg/mL.

Turning to `Clc1ccc(C2C3=C(N=C4SC=C(c5ccc(Br)cc5)N42)c2ccccc2SC3)cc1` (configuration not stated), the minimum inhibitory concentration (MIC) was 31.2 µg/mL (≈ 59.6 µM) in experiment [1]; above 125 µg/mL in [2]; above 125 µg/mL in [3]; 31.2 µg/mL (≈ 59.6 µM) in experiment [4]; above 125 µg/mL in experiment [5]; above 125 µg/mL in experiment [6]. Also, the minimal inhibitory concentration (MIC) in [7] is above 125 µg/mL. Besides, the minimal bactericidal concentration (MBC) is above 125 µg/mL in experiment [8], 31.2 µg/mL (≈ 59.6 µM) in experiment [9], 62.5 µg/mL (≈ 119 µM) in [10] and above 125 µg/mL in experiment [11].

Turning to `O=[N+]([O-])c1cccc(C2C3=C(N=C4SC=C(c5ccc(Cl)cc5)N42)c2ccccc2SC3)c1` (configuration not stated), the MIC in experiment [1], in experiment [2], in [3], in experiment [4], in experiment [5] and in experiment [6] was above 125 µg/mL in each case. This compound returned an MIC in experiment [7] above 125 µg/mL.

As for `O=c1oc2ccccc2cc1C1=CSC2=NC3=C(CSc4ccccc43)C(c3ccc(Cl)cc3)N12` (configuration not stated), the minimum inhibitory concentration (MIC) in experiment [1], in [2], in [3], in experiment [4], in experiment [5] and in [6] was above 125 µg/mL in each case. The same compound came in with a minimum inhibitory concentration (MIC) in experiment [7] above 125 µg/mL.

With `Brc1ccc(C2=CSC3=NC4=C(CSc5ccccc54)C(c4ccccc4)N23)cc1` (configuration not stated), the MIC in experiment [1], in experiment [2], in experiment [3], in [4], in experiment [5] and in experiment [6] was above 125 µg/mL in each case. The same compound returned an MIC in experiment [7] above 125 µg/mL.

Regarding `C1=C(c2ccccc2)N2C(=NC3=C(CSc4ccccc43)C2c2ccccc2)S1` (configuration not stated), the MIC in experiment [1] was 31.2 µg/mL (≈ 76 µM); in [2], above 125 µg/mL; in experiment [3], above 125 µg/mL; in experiment [4], above 125 µg/mL; in experiment [5], above 125 µg/mL; in experiment [6], above 125 µg/mL. For the same compound, the minimal inhibitory concentration (MIC) in experiment [7] is above 125 µg/mL. The minimum bactericidal concentration (MBC) in experiment [8] is above 125 µg/mL; in experiment [9] it was above 125 µg/mL; in experiment [10], 62.5 µg/mL (≈ 152 µM); in [11], above 125 µg/mL.
